ChEMBL document CHEMBL1153476, “Novel mannosyl derivatives of peptidoglycan monomer: Synthesis and biological evaluation of immunomodulatory properties” (2009)

System: Mus musculus
Experiment: Immunostimulatory activity against ovalbumin-stimulated immune response in mouse serum assessed as ratio of IgG1 to IgG2a at 200 ug, sc measured after 7 days by ELISA
Type: functional

CC(=O)N[C@@H]1[C@@H](O[C@H](C)C(=O)N[C@@H](C)C(=O)N[C@H](CCC(=O)N[C@H](CCC[C@H](N)C(N)=O)C(=O)N[C@H](C)C(=O)N[C@H](C)C(=O)O)C(N)=O)[C@H](O[C@@H]2O[C@H](CO)[C@@H](O)[C@H](O)[C@H]2NC(C)=O)[C@@H](CO)O[C@H]1O
Ratio: 2.6
